According to patent publication US20180201592A1, “2-AMINO-1,3,4-THIADIAZINE AND 2-AMINO-1,3,4-OXADIAZINE BASED ANTIFUNGAL AGENTS” (F2G Limited, priority 2015, published 2018):

Columns and labels:
Settings in all cases: banded MIC grade
Aspergillus terreus = experiment: Minimum inhibitory concentration, YAG medium; format: cell-based
Outline: (§1)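 Twofold aqueous dilution series, prepared from a DMSO stock (5 mg/mL), were inoculated with Aspergillus spp. spores; incubation lasted 24 hrs at 35° C before OD 485 nm readings.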

Aspergillus flavus = experiment: Minimum inhibitory concentration, YAG medium; format: cell-based
Outline: as §1

Aspergillus niger = experiment: Minimum inhibitory concentration, YAG medium; format: cell-based
Outline: as §1

A. niger = experiment: Minimum inhibitory concentration, RPMI medium; format: cell-based
Outline: (§2)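 Incubated at 35° C for 24-48 hrs in RPMI 1640 with twofold water dilutions of compound (from 5 mg/mL stock in DMSO); absorbance at 485 nm indicated growth.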

C. tropicalis = experiment: Minimum inhibitory concentration, RPMI medium; format: cell-based
Outline: as §2

C. parapsilosis = experiment: Minimum inhibitory concentration, RPMI medium; format: cell-based
Outline: as §2

C. glabrata = experiment: Minimum inhibitory concentration, RPMI medium; format: cell-based
Outline: as §2

C. albicans = experiment: Minimum inhibitory concentration, RPMI medium; format: cell-based
Outline: as §2

A. terreus 49 [1] = experiment: Minimum inhibitory concentration, RPMI medium; format: cell-based
Outline: as §2

A. flavus = experiment: Minimum inhibitory concentration, RPMI medium; format: cell-based
Outline: as §2

C. krusei = experiment: Minimum inhibitory concentration, RPMI medium; format: cell-based
Outline: as §2

A. terreus = experiment: Minimum inhibitory concentration, RPMI medium; format: cell-based
Outline: as §2

A. fumigatus 210 [2] = experiment: Minimum inhibitory concentration, YAG medium; format: cell-based, Aspergillus fumigatus
Outline: (§3)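 Testing uses spores harvested after 5 days on Sabouraud agar, grown 24 hrs at 35° C in glucose/ammonium chloride/yeast extract (YAG) medium against twofold drug dilutions. Optical density at 485 nm defines MIC as >70% growth reduction compared with drug-free wells.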

Aspergillus fumigatus = experiment: Minimum inhibitory concentration, YAG medium; format: cell-based
Outline: as §3

A. terreus 49 [3] = experiment: Minimum inhibitory concentration, YAG medium; format: cell-based, Aspergillus terreus
Outline: as §1

A. fumigatus 210 [4] = experiment: Minimum inhibitory concentration, RPMI medium; format: cell-based
Procedure: (§4) Between 1 and 5 mgs of compound were accurately weighed out into a sterile Eppendorf tube. The compound was dissolved in DMSO to give a solution containing 5 mg/mL. Tubes were stored at −20° C. until required.
(§5) On the day of testing thawed solutions were vortex mixed to ensure homogeneity. 30 μL of solution was removed and added to 570 μL of sterile water in a separate sterile Eppendorf. The thoroughly mixed solution was used to prepare a series of doubling dilutions in water, in a deep well plate. Thirteen replicate plates were prepared using a Minitrak by aspirating 20 μL from each well into eleven clear polystyrene 96 well plates.
(§6) Assays were also performed in RPMI medium (Roswell Park Memorial Media 1640). To perform MIC tests in this medium, dilutions of compounds are prepared in microtitre plates as described above. Fungal strains to be tested are grown and harvested in an identical manner to that described above, and each organism suspension was diluted in RPMI medium, typically containing 2% glucose and 0.135 M MOPS buffer (pH 7.0) to 0.5-2×10^4cfu/mL, rather than in YAG medium. 80 μL of an organism suspension was added to each well of the plate containing drug dilutions.
(§7) This produced MIC plates with a drug range 50-0.05 mg/L and organism inocula of 1-2×10^4 cfu/mL. All plates were incubated for 24-48 hrs at 35° C. Growth was assessed by monitoring the optical density at 485 nm for each well. The MIC of a compound is the lowest drug concentration that inhibits growth of an organism by >80% compared with a drug free control. The following organisms were tested: C. albicans, C. parapsilosis, C. tropicalis, C. glabrata, C. krusei, A. niger, A. fumigatus, A. terreus, A. flavus, A. terreus 49, and A. fumigatus 210.

A. fumigatus = experiment: Minimum inhibitory concentration, RPMI medium; format: cell-based
Procedure: as §4, §5, §6, §7

Compound | MIC grade, A. TERREUS, YAG media (Aspergillus terreus) | MIC grade, A. FLAVUS, YAG media (Aspergillus flavus) | MIC grade, A. NIGER, YAG media (Aspergillus niger) | MIC grade, A. NIGER, RPMI media (A. niger) | MIC grade, C. TROPICALIS, RPMI media (C. tropicalis) | MIC grade, C. PARAPSILOSIS, RPMI media (C. parapsilosis) | MIC grade, C. GLABRATA, RPMI media (C. glabrata) | MIC grade, C. ALBICANS, RPMI media (C. albicans) | MIC grade, A. TERREUS 49, RPMI media (A. terreus 49 [1]) | MIC grade, A. FLAVUS, RPMI media (A. flavus) | MIC grade, C. KRUSEI, RPMI media (C. krusei) | MIC grade, A. TERREUS, RPMI media (A. terreus) | MIC grade, A. FUMIGATUS 210, YAG media (A. fumigatus 210 [2]) | MIC grade, A. FUMIGATUS, YAG media (Aspergillus fumigatus) | MIC grade, A. TERREUS 49, YAG media (A. terreus 49 [3]) | MIC grade, A. FUMIGATUS 210, RPMI media (A. fumigatus 210 [4]) | MIC grade, A. FUMIGATUS, RPMI media (A. fumigatus)
NC1=NN=C(CCCCOCc2cccc(Oc3ccccc3)c2)CS1 | 1 (1: ≥5 mg/L) | 2 (2: 1-5 mg/L) | 2 (2: 1-5 mg/L) | 1 (1: ≥20 mg/L) | 3 (3: 1-5 mg/L) | 3 (3: 1-5 mg/L) | 1 (1: ≥20 mg/L) | 3 (3: 1-5 mg/L) | 1 (1: ≥20 mg/L) | 1 (1: ≥20 mg/L) | 3 (3: 1-5 mg/L) | 1 (1: ≥20 mg/L) | 1 (1: ≥5 mg/L) | 1 (1: ≥5 mg/L) | 1 (1: ≥5 mg/L) | 1 (1: ≥20 mg/L) | 1 (1: ≥20 mg/L)
NC1=NN=C(CCCCCOc2ccccn2)CS1 | 4 (4: <0.2 mg/L) | 4 (4: <0.2 mg/L) | 4 (4: <0.2 mg/L) | 4 (4: <1 mg/L) | 4 (4: <1 mg/L) | 4 (4: <1 mg/L) | 3 (3: 1-5 mg/L) | 4 (4: <1 mg/L) | 4 (4: <1 mg/L) | 4 (4: <1 mg/L) | 4 (4: <1 mg/L) | 4 (4: <1 mg/L) | 4 (4: <0.2 mg/L) | 4 (4: <0.2 mg/L) | 4 (4: <0.2 mg/L) | 3 (3: 1-5 mg/L) | 4 (4: <1 mg/L)
NC1=NN=C(CCCCOCc2ccc(Br)cc2)CS1 | 4 (4: <0.2 mg/L) | 4 (4: <0.2 mg/L) | 4 (4: <0.2 mg/L) | 3 (3: 1-5 mg/L) | 4 (4: <1 mg/L) | 4 (4: <1 mg/L) | 4 (4: <1 mg/L) | 4 (4: <1 mg/L) | 3 (3: 1-5 mg/L) | 4 (4: <1 mg/L) | 4 (4: <1 mg/L) | 4 (4: <1 mg/L) | 4 (4: <0.2 mg/L) | 4 (4: <0.2 mg/L) | 4 (4: <0.2 mg/L) | 2 (2: 5-20 mg/L) | 2 (2: 5-20 mg/L)
NC1=NN=C(CCOCCOc2ccccc2)CS1 | 4 (4: <0.2 mg/L) | 4 (4: <0.2 mg/L) | 4 (4: <0.2 mg/L) | 3 (3: 1-5 mg/L) | 3 (3: 1-5 mg/L) | 4 (4: <1 mg/L) | 2 (2: 5-20 mg/L) | 3 (3: 1-5 mg/L) | 4 (4: <1 mg/L) | 3 (3: 1-5 mg/L) | 4 (4: <1 mg/L) | 4 (4: <1 mg/L) | 4 (4: <0.2 mg/L) | 4 (4: <0.2 mg/L) | 4 (4: <0.2 mg/L) | 3 (3: 1-5 mg/L) | 3 (3: 1-5 mg/L)
